Laboratory results: patent US20240408042A1, “ORALLY DISINTEGRATING BACLOFEN COMPOSITIONS AND METHODS OF MAKING SAME” (Clinical Research Associates LLC, priority 2023, published 2024)

Tests used:
[1] = animal models; cited from earlier work
[2] = compared with S-baclofen; cited from earlier work
[3] = Excipient solubility in HPLC method diluent; assay type: physicochemical; details: approximately 1 to 2 mg/mL

Row | SMILES | Completely Soluble in 85% 50 mM Potassium Phosphate, pH 3.0, 15% ACN [3] | further results
1 | NCC(CC(=O)O)c1ccc(Cl)cc1 (racemic) [Baclofen, (±)-4-Amino-3-(4-chlorophenyl) butanoic acid] |  | absorption following administration into the colon [1]: poorly absorbed
2 | NC[C@H](CC(=O)O)c1ccc(Cl)cc1 (single isomer, unassigned) [R-baclofen] |  | potency in reducing obsessive-compulsive and repetitive behavior and audiogenic seizures [2]: more potent than S-baclofen
3 | OC[C@@H](O)[C@@H](O)[C@H](O)[C@H](O)CO [Pearlitol 300DC, Mannitol] | Yes | 
4 | CCCCCCCCCCCCCCCCCCOC(=O)/C=C/C(=O)[O-].[Na+] [Pruv, Sodium Stearyl Fumarate] | No | 
5 | OC[C@H]1O[C@H](O[C@]2(CCl)O[C@H](CCl)[C@@H](O)[C@@H]2O)[C@H](O)[C@@H](O)[C@H]1Cl [Sucralose] | Yes | 
